Measured values from PubChem BioAssay (NCI).
Values joined by “and” are separate entries in the source; they are usually repeats but may differ in a detail not shown here. Identical values can stand only once.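 Protocol summary: plate cells (96-well), add compound at 5 concentrations, incubate 48 h, interpolate endpoints linearly. At the GI50, growth is halved. At the TGI there is no net growth.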

Key:
Assay in all cases: NCI tumour cell line growth inhibition, 48 h
A549 NSCLC = system: A549 NSCLC
CAKI-1 renal = system: CAKI-1 renal
HCC-2998 colon = system: HCC-2998 colon
KM12 colon = system: KM12 colon
NCI-H522 lung = system: NCI-H522 lung
NCI/ADR-RES ovarian = system: NCI/ADR-RES ovarian
RPMI-8226 leukemia = system: RPMI-8226 leukemia
SK-MEL-28 melanoma = system: SK-MEL-28 melanoma
T-47D breast = system: T-47D breast
MALME-3M melanoma = system: MALME-3M melanoma

Structure (SMILES)	TGI (A549 NSCLC)	TGI (CAKI-1 renal)	TGI (HCC-2998 colon)	TGI (KM12 colon)	TGI (NCI-H522 lung)	TGI (NCI/ADR-RES ovarian)	TGI (RPMI-8226 leukemia)	TGI (SK-MEL-28 melanoma)	TGI (T-47D breast)	GI50 (MALME-3M melanoma)	TGI (MALME-3M melanoma)	GI50 (RPMI-8226 leukemia)	GI50 (A549 NSCLC)	GI50 (CAKI-1 renal)	GI50 (HCC-2998 colon)	GI50 (KM12 colon)	GI50 (NCI-H522 lung)	GI50 (SK-MEL-28 melanoma)	GI50 (NCI/ADR-RES ovarian)	GI50 (T-47D breast)
O=C1OC(c2ccccc2)=N/C1=C\c1ccccc1	> 100 µM	> 100 µM	> 100 µM	> 100 µM and 62.2 µM	> 100 µM	> 100 µM and 76.9 µM	> 100 µM and 56.8 µM	> 100 µM	> 100 µM	–	–	–	–	–	–	–	–	–	–	–
C=C(C)[C@@H]1CC[C@]2(C(=O)O)CC[C@]3(C)[C@H](CC[C@@H]4[C@@]5(C)CCC(N)C(C)(C)[C@@H]5CC[C@]43C)[C@@H]12 (some centres not stated)	–	–	–	–	–	–	5.21 µM	–	–	1.56 µM	3.22 µM	2.04 µM	–	–	–	–	–	–	–	–
CC(=O)[CH-]C(=O)c1ccccc1.CC(=O)[CH-]C(=O)c1ccccc1.Cl.[O-]CCc1ccccn1.[O-]CCc1ccccn1.[Ti+4]	95.9 µM	> 100 µM	83.6 µM	> 100 µM	70.6 µM	–	58.4 µM	55.1 µM	–	18.7 µM	44.1 µM	15.8 µM	27.8 µM	44.1 µM	26.9 µM	41.4 µM	27.8 µM	20.6 µM	–	–
C(=C\c1ccc2ccccc2c1Nc1ccccc1)/c1ccccc1	> 100 µM	> 83.8 µM	> 100 µM	> 100 µM	> 100 µM	–	> 72.5 µM	> 88.2 µM	–	–	> 78.8 µM	–	–	–	–	–	–	–	–	–
ClC/C=C/CSc1ncnc2nc[nH]c12	–	> 100 µM	> 100 µM	> 100 µM	–	> 100 µM	> 100 µM	> 100 µM	> 100 µM	> 100 µM	> 100 µM	> 100 µM	–	> 100 µM	> 100 µM	> 100 µM	–	> 100 µM	> 100 µM	> 100 µM
O=C1N(c2ccc(Cl)cc2)C(=O)C2(SC=NN2Cc2ccccc2)N1c1ccc(Cl)cc1 (configuration not stated)	> 100 µM	–	> 100 µM	> 100 µM	> 100 µM	–	> 100 µM	> 100 µM	–	–	> 100 µM	–	–	–	–	–	–	–	–	–
CN(C)NC(=O)NC12CC3CC(CC(C3)C1)C2	> 100 µM	> 100 µM	–	> 100 µM	> 100 µM	–	> 100 µM	> 10 µM	–	–	–	–	–	–	–	–	–	–	–	–
COc1ccccc1NC(=O)c1sc2ncn(CCOc3ccccc3)c(=O)c2c1C	> 50 µM	> 50 µM	–	> 50 µM	> 50 µM	> 50 µM	> 50 µM	–	> 50 µM	–	–	9.2 µM	3.36 µM	2.42 µM	–	1.43 µM	1.8 µM	–	1.76 µM	> 50 µM
CCCCCCCCCC(=O)Oc1ccc(/C(=C(/C)c2ccccc2)c2ccc(OCCN3CCCC3)cc2)cc1	17.7 µM	13.9 µM	17.2 µM	16.7 µM	18.4 µM	16.9 µM	21 µM	–	–	7.76 µM	15.7 µM	9.13 µM	9.35 µM	6.77 µM	8.66 µM	8.78 µM	9.36 µM	–	8.03 µM	–
N#Cc1sc2nc3c(c(-c4ccccc4)c2c1N)CCCC3	> 100 µM	> 100 µM	> 100 µM	> 100 µM	> 100 µM	–	> 100 µM	> 100 µM	–	–	> 100 µM	–	–	–	–	–	–	–	–	–
CCNC(=O)O/N=C1\CCC2[C@@H]3CC=C4C[C@@H](OC(=O)NCC)CC[C@]4(C)C3CC[C@]12C (some centres not stated)	13.5 µM	–	17.7 µM	13.8 µM	10.6 µM	–	5.69 µM	12.1 µM	–	–	1.51 µM	–	–	–	–	–	–	–	–	–
Nc1ncc(CN2CCCC2)c(-c2ccccc2O)n1	> 750 µM	> 750 µM	> 750 µM	> 750 µM	> 750 µM	–	> 750 µM	> 750 µM	–	–	> 750 µM	–	–	–	–	–	–	–	–	–
COc1cc2c3c(c4cc(OC)c(OC)cc4c2cc1OC)CN1CCC[C@H]1C3	0.142 µM	0.481 µM and 0.926 µM	0.3 µM and 0.656 µM	1.22 µM	1.01 µM and 0.54 µM	–	0.435 µM and 2.13 µM	–	0.33 µM	–	–	0.0906 µM and < 0.0175 µM	–	–	0.0356 µM and < 0.01 µM	0.0452 µM and < 0.01 µM	–	–	0.111 µM and 0.0379 µM	0.0192 µM
CC(=O)O[C@H]1CSC[C@@H](OC(C)=O)C1[N+](=O)[O-] (some centres not stated)	> 100 µM	> 100 µM	> 100 µM	> 100 µM	36.8 µM	–	59.5 µM	69.4 µM	–	–	41.6 µM	–	–	–	–	–	–	–	–	–
NC1(C(=O)O)CCC(C(=O)O)CC1 (configuration not stated)	> 100 µM	> 100 µM	> 100 µM	> 100 µM	> 100 µM	–	> 100 µM	> 100 µM	–	–	> 100 µM	–	–	–	–	–	–	–	–	–
CSCSCC(CO)NC(=O)/C=C/c1c(C)[nH]c(=O)[nH]c1=O (configuration not stated)	> 100 µM	> 100 µM	> 100 µM	> 100 µM	–	–	> 100 µM	> 100 µM	–	–	> 100 µM	–	–	–	–	–	–	–	–	–
CC(=O)OC1(C(C)=O)CC2(c3ccccc3)OC1(c1ccccc1)c1ccccc12 (configuration not stated)	> 100 µM	–	> 100 µM	> 100 µM	29.8 µM	–	96.8 µM	> 100 µM	–	–	> 100 µM	–	–	–	–	–	–	–	–	–
O=C(CC1(O)C(=O)Nc2ccc(Cl)cc21)c1ccc(C(=O)NCC2CCC3(CC2)OOC2(CCCCC2)OO3)cc1 (configuration not stated)	–	3.27 µM	21.4 µM	5.22 µM	1.37 µM	45.5 µM	4.72 µM	17.9 µM	5.37 µM	–	–	1.73 µM	–	1.62 µM	4.27 µM	1.77 µM	0.292 µM	3.33 µM	11.8 µM	1.57 µM
CCOC(=O)C(Oc1ccc(OC)c2c1C(=O)CCC2)c1ccccc1 (configuration not stated)	> 100 µM	> 100 µM	> 100 µM	> 100 µM	> 100 µM	–	> 100 µM	> 100 µM	–	–	> 100 µM	–	–	–	–	–	–	–	–	–
CN(C(=O)C12C3C4C1C1C2C3C41C#N)C(C)(C)C (configuration not stated)	> 100 µM	> 100 µM	> 100 µM	> 100 µM	> 100 µM	–	> 100 µM	> 100 µM	–	–	> 100 µM	–	–	–	–	–	–	–	–	–
COc1cc([C@H]2OC[C@@H]3C(c4cc(OC)c5c(c4)OCO5)OC[C@H]23)cc(OC)c1OC (some centres not stated)	> 100 µM	> 100 µM	> 100 µM	> 100 µM	> 100 µM	> 100 µM	> 100 µM	> 100 µM	> 100 µM	–	–	–	–	–	–	–	–	–	–	–
